In US12679824B2 (Hoffmann-La Roche Inc., priority 2020, dated 2026) one finds IC90 data, which are given here for 23 compounds.

The first assay has as its system Acinetobacter baumannii ATCC17961. Briefly: 90% Growth Inhibitory Concentration (IC90) determination, antimicrobial susceptibility testing. It counts as cell-based. The following applies: Acinetobacter baumannii, ATCC17961, 16 h, Acinetobacter baumannii ATCC17961; Iso-Sensitest broth; growth by optical density at 600 nm over 16h; concentration inhibiting 90% of the growth; read-out: ATCC 17961 IC90. The method, boiled down: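 Broth microdilution in Iso-Sensitest medium, compounds twofold diluted (e.g. 50–0.097 μM final), inoculum ~5×10^(5) CFU/ml, 35±2° C. OD600 was read every 20 min over 16 h. IC90 was derived from growth inhibition during logarithmic growth.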
A word on the IC90: it is the concentration needed for an effect of 90%. Regarding `C[C@@H]1CNC[C@H](C)N1C(=O)c1ccc(NC(=O)c2ncc(-c3cn(-c4ccc(N)cn4)nc3C(F)(F)F)n2C)cc1Cl` [Example Z54, 5-[1-(5-amino-2-pyridyl)-3-(trifluoromethyl)pyrazol-4-yl]-N-[3-chloro-4-[(2S,6R)-2,6-dimethylpiperazine-1-carbonyl]phenyl]-1-methyl-imidazole-2-carboxamide], the IC90 came out at 350 nM.

Regarding `Cn1c(-c2cn(-c3ccc(N)cn3)nc2C(F)(F)F)cnc1C(=O)Nc1ccc(C(=O)N2C3CNCC2C3)c(Cl)c1` [Example Z55, 5-[1-(5-amino-2-pyridyl)-3-(trifluoromethyl)pyrazol-4-yl]-N-[3-chloro-4-(3,6-diazabicyclo[3.1.1]heptane-6-carbonyl)phenyl]-1-methyl-imidazole-2-carboxamide], the IC90 came out at 340 nM.

Turning to `C[C@H]1CNCCN1C(=O)c1ccc(NC(=O)c2ncc(-c3cn(-c4ccc(N)cn4)nc3C(F)(F)F)n2C)cc1Cl` [Example Z56, 5-[1-(5-amino-2-pyridyl)-3-(trifluoromethyl)pyrazol-4-yl]-N-[3-chloro-4-[(2S)-2-methylpiperazine-1-carbonyl]phenyl]-1-methyl-imidazole-2-carboxamide], the concentration for an effect of 90% (IC90) worked out at 400 nM.

Turning to `Cn1c(-c2cn(-c3ccc(N)cn3)nc2C(F)(F)F)cnc1C(=O)Nc1ccc(C(=O)N2CCNC(C)(C)C2)c(Cl)c1` [Example Z57, 5-[1-(5-amino-2-pyridyl)-3-(trifluoromethyl)pyrazol-4-yl]-N-[3-chloro-4-(3,3-dimethylpiperazine-1-carbonyl)phenyl]-1-methyl-imidazole-2-carboxamide], the IC90 came out at 1290 nM.

Turning to `CC(C)[C@H]1CN(C(=O)c2ccc(NC(=O)c3ncc(-c4cn(-c5ccc(N)cn5)nc4C(F)(F)F)n3C)cc2Cl)CCN1` [Example Z58, 5-[1-(5-amino-2-pyridyl)-3-(trifluoromethyl)pyrazol-4-yl]-N-[3-chloro-4-[(3S)-3-isopropylpiperazine-1-carbonyl]phenyl]-1-methyl-imidazole-2-carboxamide], the IC90 came to 560 nM.

In the case of `Cn1c(-c2cn(-c3ccc(N)cn3)nc2C(F)(F)F)cnc1C(=O)Nc1ccc(C(=O)N2CC3CNC3C2)c(Cl)c1` (centres unmarked) [Example Z59, 5-[1-(5-amino-2-pyridyl)-3-(trifluoromethyl)pyrazol-4-yl]-N-[3-chloro-4-(3,6-diazabicyclo[3.2.0]heptane-3-carbonyl)phenyl]-1-methyl-imidazole-2-carboxamide], the IC90 amounted to 1310 nM.

Take `Cn1c(-c2cn(-c3ccc(N)cn3)nc2C(F)(F)F)cnc1C(=O)Nc1ccc(C(=O)N2CCCNCC2)c(Cl)c1` [Example Z60, 5-[1-(5-amino-2-pyridyl)-3-(trifluoromethyl)pyrazol-4-yl]-N-[3-chloro-4-(1,4-diazepane-1-carbonyl)phenyl]-1-methyl-imidazole-2-carboxamide]: the IC90 is 400 nM.

For `C[C@H]1CN(C(=O)c2ccc(NC(=O)c3ncc(-c4cn(-c5ccc(N)cn5)nc4C(F)(F)F)n3C)cc2Cl)CCN1` [Example Z61, 5-[1-(5-amino-2-pyridyl)-3-(trifluoromethyl)pyrazol-4-yl]-N-[3-chloro-4-[(3S)-3-methylpiperazine-1-carbonyl]phenyl]-1-methyl-imidazole-2-carboxamide], the IC90 was determined as 700 nM.

With `Cn1c(-c2cn(-c3ccc(N)cn3)nc2C(F)(F)F)cnc1C(=O)Nc1ccc(C(=O)N2C3CCC2CNC3)c(Cl)c1` [Example Z62, 5-[1-(5-amino-2-pyridyl)-3-(trifluoromethyl)pyrazol-4-yl]-N-[3-chloro-4-(3,8-diazabicyclo[3.2.1]octane-8-carbonyl)phenyl]-1-methyl-imidazole-2-carboxamide], the IC90 came out at 380 nM.

For the compound `CC[C@@H]1CNCCN1C(=O)c1ccc(NC(=O)c2ncc(-c3cn(-c4ccc(N)cn4)nc3C(F)(F)F)n2C)cc1Cl` [Example Z63, 5-[1-(5-amino-2-pyridyl)-3-(trifluoromethyl)pyrazol-4-yl]-N-[3-chloro-4-[(2R)-2-ethylpiperazine-1-carbonyl]phenyl]-1-methyl-imidazole-2-carboxamide], the IC90 was 1170 nM.

Turning to `CC[C@H]1CNCCN1C(=O)c1ccc(NC(=O)c2ncc(-c3cn(-c4ccc(N)cn4)nc3C(F)(F)F)n2C)cc1Cl` [Example Z64, 5-[1-(5-amino-2-pyridyl)-3-(trifluoromethyl)pyrazol-4-yl]-N-[3-chloro-4-[(2S)-2-ethylpiperazine-1-carbonyl]phenyl]-1-methyl-imidazole-2-carboxamide], the IC90 amounted to 440 nM.

With `Cn1c(-c2cn(-c3ccc(N)cn3)nc2C(F)(F)F)cnc1C(=O)Nc1ccc(C(=O)NCCN2CCNCC2)c(Cl)c1` [Example Z65, 5-[1-(5-amino-2-pyridyl)-3-(trifluoromethyl)pyrazol-4-yl]-N-[3-chloro-4-(2-piperazinoethylcarbamoyl)phenyl]-1-methyl-imidazole-2-carboxamide], the IC90 turned out to be 760 nM.

For the compound `Cn1c(-c2cn(-c3ccc(N)cn3)nc2C(F)(F)F)cnc1C(=O)Nc1ccc(C(=O)N2C[C@H]3C[C@@H]2CN3)c(Cl)c1` [Example Z66, 5-[1-(5-amino-2-pyridyl)-3-(trifluoromethyl)pyrazol-4-yl]-N-[3-chloro-4-[(1R,4R)-2,5-diazabicyclo[2.2.1]heptane-2-carbonyl]phenyl]-1-methyl-imidazole-2-carboxamide], the IC90 amounted to 1160 nM.

As for `Cn1c(-c2cn(-c3ccc(N)cn3)nc2C(F)(F)F)cnc1C(=O)Nc1ccc(C(=O)N2CCNCC23CC3)c(Cl)c1` [Example Z67, 5-[1-(5-amino-2-pyridyl)-3-(trifluoromethyl)pyrazol-4-yl]-N-[3-chloro-4-(4,7-diazaspiro[2.5]octane-4-carbonyl)phenyl]-1-methyl-imidazole-2-carboxamide], the IC90 is 890 nM.

Consider `C[C@H]1NCCN(C(=O)c2ccc(NC(=O)c3ncc(-c4cn(-c5ccc(N)cn5)nc4C(F)(F)F)n3C)cc2Cl)[C@H]1C` [Example Z68, 5-[1-(5-amino-2-pyridyl)-3-(trifluoromethyl)pyrazol-4-yl]-N-[3-chloro-4-[(2S,3R)-2,3-dimethylpiperazine-1-carbonyl]phenyl]-1-methyl-imidazole-2-carboxamide], for which the IC90 was 650 nM.

For the compound `COCC1CN(C(=O)c2ccc(NC(=O)c3ncc(-c4cn(-c5ccc(N)cn5)nc4C(F)(F)F)n3C)cc2Cl)CCN1` (centres unmarked) [Example Z69, 5-[1-(5-amino-2-pyridyl)-3-(trifluoromethyl)pyrazol-4-yl]-N-[3-chloro-4-[3-(methoxymethyl)piperazine-1-carbonyl]phenyl]-1-methyl-imidazole-2-carboxamide], the IC90 stood at 1310 nM.

For the compound `Cn1c(-c2cn(-c3ccc(N)cn3)nc2C(F)(F)F)cnc1C(=O)Nc1ccc(C(=O)N2C[C@H]3CN[C@H]3C2)c(Cl)c1` [Example Z70, 5-[1-(5-amino-2-pyridyl)-3-(trifluoromethyl)pyrazol-4-yl]-N-[3-chloro-4-[(1R,5R)-3,6-diazabicyclo[3.2.0]heptane-3-carbonyl]phenyl]-1-methyl-imidazole-2-carboxamide], the IC90 worked out at 1370 nM.

Regarding `Cn1c(-c2cn(-c3ncc(N)cc3F)nc2C(F)(F)F)cnc1C(=O)Nc1ccc(C(=O)N2CCN(C(=O)C3CCNCC3)CC2)c(Cl)c1` [Example Z71, 5-[1-(5-amino-3-fluoro-2-pyridyl)-3-(trifluoromethyl)pyrazol-4-yl]-N-[3-chloro-4-[4-(piperidine-4-carbonyl)piperazine-1-carbonyl]phenyl]-1-methyl-imidazole-2-carboxamide], the IC90 amounted to 310 nM.

As to `COc1cc(-n2cc(-c3cnc(C(=O)Nc4ccc(C(=O)N5CCN(C(=O)C6CCNCC6)CC5)c(Cl)c4)n3C)c(C(F)(F)F)n2)ccn1` [Example Z73, N-[3-chloro-4-(4-isonipecotoylpiperazine-1-carbonyl)phenyl]-5-[1-(2-methoxy-4-pyridyl)-3-(trifluoromethyl)pyrazol-4-yl]-1-methyl-imidazole-2-carboxamide], the IC90 was determined as 950 nM.

As for `Cn1c(-c2cn(-c3cnc(N)c(F)c3)nc2C(F)(F)F)cnc1C(=O)Nc1ccc(C(=O)N2CCN(C(=O)C3CCNCC3)CC2)c(Cl)c1` [Example Z74, 5-[1-(6-amino-5-fluoro-3-pyridyl)-3-(trifluoromethyl)pyrazol-4-yl]-N-[3-chloro-4-[4-(piperidine-4-carbonyl)piperazine-1-carbonyl]phenyl]-1-methyl-imidazole-2-carboxamide], the IC90 stood at 750 nM.

As to `COc1ccc(-n2cc(-c3cnc(C(=O)Nc4ccc(C(=O)N5CCN(C(=O)C6CCNCC6)CC5)c(Cl)c4)n3C)c(C(F)(F)F)n2)cn1` [Example Z75, N-[3-chloro-4-(4-isonipecotoylpiperazine-1-carbonyl)phenyl]-5-[1-(6-methoxy-3-pyridyl)-3-(trifluoromethyl)pyrazol-4-yl]-1-methyl-imidazole-2-carboxamide], the IC90 was 1110 nM.

`CCN(CC)C(=O)c1ccc(NC(=O)c2ncc(-c3cn(-c4ccc(N)cn4)nc3C(F)(F)F)n2C)cc1Cl` [Example Z76, 5-[1-(5-amino-2-pyridyl)-3-(trifluoromethyl)pyrazol-4-yl]-N-[3-chloro-4-(diethylcarbamoyl)phenyl]-1-methyl-imidazole-2-carboxamide]: the IC90 turned out to be 1140 nM.

Staying with this assay, now noted: Acinetobacter baumannii, ATCC17961, 16 h, read-out: ATCC 17961 IC90.
On to `Cn1c(-c2cn(-c3ccc(N)c(F)n3)nc2C(F)(F)F)cnc1C(=O)Nc1ccc(C(=O)N2CCN(C(=O)C3CCNCC3)CC2)c(Cl)c1` [Example Z72, 5-[1-(5-amino-6-fluoro-2-pyridyl)-3-(trifluoromethyl)pyrazol-4-yl]-N-[3-chloro-4-[4-(piperidine-4-carbonyl)piperazine-1-carbonyl]phenyl]-1-methyl-imidazole-2-carboxamide], for which the IC90 came to 250 nM.
